Assay results as given in article PMC10975012, “The Active Glucuronide Metabolite of the Brain Protectant IMM-H004 with Poor Blood–Brain Barrier Permeability Demonstrates a High Partition in the Rat Brain via Multiple Mechanisms” (Pharmaceutics, 2024).

Assays:
[1] = cited from earlier work
[2] = Uptake kinetics in hCMEC/D3 cells; assay type: cell-based, human; details: human, hCMEC/D3 cells, 2–400 μmol/L, 10 min
Procedure: (§1) Uptake assays into hCMEC/D3 cells were conducted in 24-well plates. All incubations were carried out at 37 °C in triplicate unless otherwise noted. In time-dependent uptake studies, hCMEC/D3 cells were incubated with IMM-H004 (10 µmol/L) and IMM-H004G (50 µmol/L) dissolved in HBSS under gentle shaking for up to 30 min. To investigate the impact of incubation temperature on the uptake of IMM-H004 and IMM-H004G by hCMEC/D3 cells, incubation was performed at 4 or 37 °C for 10 min. To determine the kinetic parameters, the cells were incubated with IMM-H004 and IMM-H004G (2–400 µmol/L) for 10 min. The uptake data were fitted to the following equation using nonlinear least-square regression analysis in GraphPad Prism 9 (GraphPad, San Diego, CA, USA):(1) V=Vmax×S/Km+S+Kns×S where V is the uptake velocity (nmol/mg protein/min), and S is the initial concentration (μmol/L). Vmax, Km, and Kns represent the maximum uptake velocity (nmol/mg protein/min), the Michaelis–Menten constant (μmol/L), and nonsaturable uptake clearance (μL/mg protein/min), respectively. The saturable uptake of both IMM-H004 and IMM-H004G was plotted with the Eadie–Hofstee method by subtracting passive uptake from the total uptake.

hCMEC/D3 cells = assay: Uptake kinetics in hCMEC/D3 cells; assay type: cell-based, human; details: for reduction of uptake at 4 °C compared to 37 °C: 10 μmol/L; for reduction of uptake at 4 °C compared to 37 °C / Kns, passive diffusion rate / Vmax/Km ratio, transporter-mediated uptake: 10 min; for Kns, passive diffusion rate / Vmax/Km ratio, transporter-mediated uptake: 2–400 μmol/L
Procedure: as §1

[3] = Pharmacokinetics in rats with cerebral microdialysis; assay type: in vivo; details: rat; for Kp: brain (cerebral cortex microdialysate) and plasma, read-out: Kp (AUCbrain/AUCplasma); for peak brain concentration: free concentration (microdialysis); for AUCbrain / concentration at 2 min / AUC: free concentration; for concentration at 2 min / AUC: plasma (free concentration); for AUC: read-out: AUCplasma
Procedure: Rats were anesthetized with isoflurane. Microdialysis intracerebral guide cannulas and CMA 12 Elite Probe (PAES membrane with a MWCO of 20 kDa, 2 mm membrane length (CMA/Microdialysis AB, Stockholm, Sweden)) were implanted into the cerebral cortex at the coordinates relative to bregma: medial/lateral = 3.0 mm; anterior/posterior = 0.5 mm; dorsal/ventral = −3.0 mm. After a 24 h recovery period, the intracerebral probe was connected to the microdialysis cannula, and Ringer’s solution was perfused at a flow rate of 2.0 μL/min. Then, IMM-H004 citrate or IMM-H004G (10 mg/kg) was injected intravenously (iv). Dialysate samples were collected every 5 to 60 min for a duration of 7 h. The probe recovery in vitro was determined by dialyzing a standard mixture of IMM-H004 (50 ng/mL) and IMM-H004G (300 ng/mL) infused with Ringer’s solution.
Blood samples were collected from the orbital plexus into heparinized tubes and subsequently centrifuged to separate the plasma. The concentrations of IMM-H004 and IMM-H004G in both the dialysate and plasma samples were determined using LC-MS/MS analysis. Subsequently, the free concentrations in the brain and plasma were corrected with probe recovery and fu for further analysis, respectively. The pharmacokinetic parameters were calculated via noncompartmental analysis (NCA) using Phoenix WinNonlin 6.3 (Pharsight Corporation, Sunnyvale, CA, USA). The brain–plasma partition coefficient (Kp) was determined as the ratio of the area under the concentration–time curve for the brain (AUCbrain) to that of the plasma (AUCplasma).

In situ brain perfusion = assay type: in vivo, rat; details: 10 μmol/L
Procedure: The rat brain was perfused following a previously described method. Briefly, the common carotid arteries on both sides were cannulated and connected to the perfusion system, while the external carotid artery was ligated. At the beginning of perfusion, the jugular veins on both sides were quickly incised. The perfusion procedure consisted of a preperfusion wash with saline for 1 min, followed by drug infusion (2 µmol/L IMM-H004 or IMM-H004G) for 2, 5, and 10 min, and concluded with a postperfusion wash (saline for 5 min) at a rate of 4.0 mL/min. To examine the impact of P-gp (PSC833, 5 µmol/L) and OATP (rifamycin SV, 100 µmol/L) on BBB transport, the perfusate containing the inhibitor was perfused for 1 min, and then the mixture of IMM-H004 or IMM-H004G (10 µmol/L) and the inhibitor was perfused for 10 min. Following the perfusion, the rats were decapitated, and their brains were homogenized (1:3, w/v) in chilled saline. The concentrations of IMM-H004 and IMM-H004G were then determined by LC-MS/MS.
The unidirectional transfer constant Kin (mL/min/g) was calculated using the following equation:(4) Kin=Qbr/Cpf[…] where Qbr/Cpf is the apparent brain distribution volume, Qbr is the measured amount of compound in brain tissue, Cpf is the concentration of compound in the perfusate, and T is the perfusion time.

[4] = test system: pyrilamine-sensitive H^+/OC antiporter; assay: Identification of transporters using inhibitors in hCMEC/D3 cells: H+/OC antiporter; assay type: cell-based, human; details: substrate 10 μmol/L; for reduction of uptake by quinidine: quinidine 100 μmol/L; for reduction of uptake by verapamil: verapamil 100 μmol/L
Procedure: (§2) The toxicity of all compounds, including inhibitors and substrates, toward hCMEC/D3 cells, was assessed using the 3-(4,5-Dimethylthiazol-2-yl)-2,5-diphenyltetrazolium bromide (MTT) reduction assay as described previously. To assess the effects of pyrilamine-sensitive proton-coupled organic cation (H^+/OC) antiporter, organic anion transporter (OAT), organic anion-transporting polypeptides (OATPs), organic cation transporter (OCT), and novel organic cation–carnitine transporter (OCTN) inhibitors on the uptake process, IMM-H004 or IMM-H004G (10 µmol/L) combined with the inhibitors were added to the medium after preincubating the cells with the inhibitors for 30 min. For evaluating the impact of the multidrug and toxin extrusion transporter (MATE), P-glycoprotein (P-gp), multidrug resistance protein (MRP), and breast cancer resistance protein (BCRP) on the uptake, IMM-H004 or IMM-H004G (10 µmol/L) was preincubated with the cells for 2 h before the addition of the inhibitors. After removing the supernatant, the cells were washed twice with prewarmed HBSS and incubated with fresh HBSS for 20 min. At the end of incubation, the supernatants were collected. The cells were washed with cold HBSS and lysed using RIPA buffer. The protein content of the lysed cells was determined using a bicinchoninic acid (BCA) assay kit (Beyotime Inc., Shanghai, China). The results were expressed as a percentage of the vehicle control.

[5] = test system: OAT, OCT, OCTN, BCRP, and MRP; assay: Identification of transporters using inhibitors in hCMEC/D3 cells: other transporters; assay type: cell-based, human; details: substrate 10 μmol/L
Procedure: as §2, with “The cells were washed with cold HBSS and lysed using RIPA buffer.” left out

P-gp = target: T1, P-gp (Homo sapiens, UniProt P08183); assay: Identification of transporters using inhibitors in hCMEC/D3 cells: P-gp; assay type: cell-based; details: substrate 10 μmol/L, PSC833 5 μmol/L
T1 construct: host or cells: hCMEC/D3
T1 sequence (P08183 whole entry): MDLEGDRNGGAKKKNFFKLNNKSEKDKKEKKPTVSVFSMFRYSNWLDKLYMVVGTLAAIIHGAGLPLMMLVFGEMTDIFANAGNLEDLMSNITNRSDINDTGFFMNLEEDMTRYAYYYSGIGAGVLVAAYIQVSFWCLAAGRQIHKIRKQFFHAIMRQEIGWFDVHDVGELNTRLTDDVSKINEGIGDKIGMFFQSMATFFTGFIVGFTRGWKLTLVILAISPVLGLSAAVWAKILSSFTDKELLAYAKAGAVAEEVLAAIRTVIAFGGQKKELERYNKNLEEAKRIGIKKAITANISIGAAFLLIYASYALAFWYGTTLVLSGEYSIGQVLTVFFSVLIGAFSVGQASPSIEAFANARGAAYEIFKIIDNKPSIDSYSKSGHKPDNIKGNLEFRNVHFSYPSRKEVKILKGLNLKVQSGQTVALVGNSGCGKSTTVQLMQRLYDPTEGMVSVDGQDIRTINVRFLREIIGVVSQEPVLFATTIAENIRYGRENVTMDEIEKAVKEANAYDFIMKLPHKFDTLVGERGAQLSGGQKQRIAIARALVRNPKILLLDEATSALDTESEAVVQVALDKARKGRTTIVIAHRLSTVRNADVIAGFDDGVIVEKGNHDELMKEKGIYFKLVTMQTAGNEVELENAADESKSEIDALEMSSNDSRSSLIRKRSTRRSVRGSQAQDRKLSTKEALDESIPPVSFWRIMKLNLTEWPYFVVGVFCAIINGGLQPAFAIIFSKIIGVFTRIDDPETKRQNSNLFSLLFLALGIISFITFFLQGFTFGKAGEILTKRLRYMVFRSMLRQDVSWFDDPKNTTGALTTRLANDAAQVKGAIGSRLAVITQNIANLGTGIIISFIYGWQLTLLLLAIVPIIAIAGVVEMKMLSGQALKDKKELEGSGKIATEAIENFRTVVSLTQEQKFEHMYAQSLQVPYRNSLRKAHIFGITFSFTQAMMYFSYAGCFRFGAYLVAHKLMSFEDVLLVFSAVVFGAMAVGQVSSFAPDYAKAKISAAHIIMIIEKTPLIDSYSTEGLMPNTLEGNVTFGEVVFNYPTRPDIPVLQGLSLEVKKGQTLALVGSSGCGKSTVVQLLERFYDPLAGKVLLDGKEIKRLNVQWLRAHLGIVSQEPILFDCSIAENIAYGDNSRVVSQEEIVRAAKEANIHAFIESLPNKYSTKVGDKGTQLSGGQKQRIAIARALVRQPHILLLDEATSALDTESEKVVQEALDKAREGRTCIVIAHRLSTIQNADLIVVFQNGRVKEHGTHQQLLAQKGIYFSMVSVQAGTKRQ
Procedure: as §2, with “The cells were washed with cold HBSS and lysed using RIPA buffer.” left out

[6] = after iv IMM-H004 citrate 10 mg/kg

Compound | Km at 10 min [2] | reduction of uptake at 4 °C compared to 37 °C (hCMEC/D3 cells) | Kns, passive diffusion rate (hCMEC/D3 cells) | Vmax/Km ratio, transporter-mediated uptake (hCMEC/D3 cells) | Kp [3, 6] | peak brain concentration ([3]; after iv IMM-H004G 10 mg/kg) | AUCbrain ([3]; after iv IMM-H004G 10 mg/kg) | AUCbrain [3, 6] | concentration at 2 min ([3]; after iv IMM-H004G 10 mg/kg) | AUC [3, 6] | reduction of uptake by quinidine [4] | reduction of uptake by verapamil [4] | effect of inhibitors of OAT, OCT, OCTN, BCRP, and MRP on uptake [5] | uptake with P-gp inhibitor PSC833 relative to control (P-gp) | other results
COc1cc(OC2OC(C(=O)O)C(O)C(O)C2O)cc2oc(=O)c(N3CCN(C)CC3)c(C)c12 (stereo not drawn) [IMM-H004G] | 10.7 µM | 70.6% | 0.100 μL/min/mg protein | 1.50 μL/min/mg protein | 0.06 | 1712 nmol/L | 1923 nmol·h/L | 1053 nmol·h/L | 40.2 µM | 16.4 µM·h | not affected | not affected | No significant impact | without affecting | brain exposure relative to the parent drug ([1]; rats): six times higher; AUCbrain relative to that of IMM-H004 [3, 6]: 5.4 times; AUCplasma relative to that of IMM-H004 [3, 6]: 116 times; change in Kin value with OATP inhibitor (In situ brain perfusion; rifamycin SV 100 μmol/L, 10 min perfusion, rat): no significant change
COc1cc(O)cc2oc(=O)c(N3CCN(C)CC3)c(C)c12 [IMM-H004] | 89.5 µM | 57.1% | 0.877 μL/min/mg protein | 18.8 μL/min/mg protein | 1.39 | 35.1 nmol/L | 93.8 nmol·h/L | 196 nmol·h/L | 0.0398 µM | 0.141 µM·h | 57.7% | 61.5% | No significant impact | 1.3 times that of the control | elimination half-life ([1]; rat plasma and brain tissues, intravenous dosing): < 1 h; Kns relative to that of IMM-H004G (hCMEC/D3 cells): 8.77 times; increase in Kin value with P-gp inhibitor PSC833 compared to control (In situ brain perfusion; PSC833 5 μmol/L, 10 min perfusion, rat): 4.3 times; Kin value relative to that of IMM-H004G (In situ brain perfusion; in situ rat brain perfusion): 18 times higher
